Paper PMC11521309, “A novel 4-aminoquinoline chemotype with multistage antimalarial activity and lack of cross-resistance with PfCRT and PfMDR1 mutants” (PLOS Pathogens, 2024)
Several values for one entry are separate records, joined by “and”; a condition that tells them apart may be missing. Identical values can stand only once. Like-named read-outs stand apart in the source and are kept apart here.

How the values were obtained:
[1] = tested on: Hz formation in ABS P. falciparum 3D7 parasites; assay: Cellular heme fractionation assay; format: cell-based, Plasmodium falciparum; details: for %Hb / %Heme / %Hemozoin / Hb Fe (fg/troph) / Heme Fe (fg/troph) / Hemozoin Fe (fg/troph) / Total Fe (fg/troph): rep 1-4 and Mean
Description: A heme fractionation assay was used to measure the inhibition of Hz formation in cultured ABS P. falciparum 3D7 parasites as previously described. […] Late trophozoites were harvested after 32 hours of incubation by lysing RBCs with 0.05% saponin followed by multiple washes with 1 × PBS (pH 7.5) to remove any residual traces of hemoglobin. The parasite pellet was resuspended in PBS and the total number of trophozoites isolated was quantified using flow cytometry. Contents of the trophozoite pellet were released by hypotonic lysis and sonication. After centrifugation, treatments with HEPES buffer (pH 7.4), sodium dodecyl sulfate, pyridine, and NaOH, allowed us to separate the fractions corresponding to the different heme species of interest. A microplate reader was employed to measure the UV-visible spectrum of each heme fraction as a Fe(III)heme-pyridine complex. Fractions of undigested hemoglobin, “free” heme, and Hz were quantified using a heme standard curve based on the mass of each heme-Fe species per mature trophozoite (fg/cell), obtained by dividing the total amount of each heme species by the corresponding number of parasites in that fraction as determined by flow cytometry. Statistical comparisons and analyses for trends employed Students’ t-tests (GraphPad Prism version 9).

HepG2 cells = assay: MTT cytotoxicity assay, 72 h; format: cell-based, Human
Description: (§1) Human hepatoma (HepG2) and fibroblast-like monkey kidney cells (COS-7) were cultured in Dulbecco’s Modified Eagle Medium supplemented with 10% heat-inactivated fetal bovine serum and gentamycin (40 mg/L) at 37°C in a 5% CO2 atmosphere. Cytotoxicity of test compounds was measured by metabolic reduction of mitochondrial enzymes using the MTT assay (3-[4,5-dimethyl-thiazol-2-yl]-2,5-diphenyltetrazolium chloride). Cells were seeded at 10^5 cells/well in 96-well plates and incubated for 72 hours in the presence of a 2-fold 12-point serial dilution of drugs along with drug-free controls. After adding 15 μL of MTT (5 mg/mL) to the wells, plates were centrifuged at 317g for 5 minutes and the pellet was resuspended in isopropanol. Absorbance was measured at 570 nm (CLARIOStar, Labtech BMG). Cell viability was determined by formazan production, and was expressed as a percentage of untreated control wells.

[2] = MTT cytotoxicity assay, 72 h; format: cell-based, Human; details: human, MTT, 72 h, N = 3
Description: as §1

COS-7 cells = assay: MTT cytotoxicity assay, 72 h; format: cell-based, monkey
Description: as §1

[3] = MTT cytotoxicity assay, 72 h; format: cell-based, monkey; details: monkey, MTT, 72 h, N = 3
Description: as §1

[4] = tested on: P. falciparum Dd2 ABS parasites; assay: ABS parasite survival assay, 72 h, flow cytometry; format: cell-based; details: Plasmodium falciparum, DD2, ABS parasites, N = 3; read-out: IC50 Dd2
Description: (§2) P. falciparum ABS parasites were cultured at 3% hematocrit in human O^+ RBCs in RPMI-1640 media supplemented with 25 mM HEPES, 50 mg/L hypoxanthine, 2 mM L-glutamine, 0.21% sodium bicarbonate, 0.5% (w/v) AlbuMAXII (Invitrogen) and 10 μg/mL gentamycin. Culture flasks were kept in modular incubator chambers (Billups-Rothenberg) in a 5% O2, 5% CO2, and 90% N2 atmosphere at 37°C. Synchronized ring-stage parasites were obtained by two consecutive rounds of treatment with 5% D-sorbitol in 48-hour intervals. […] This was done by exposing cultures at 1% hematocrit and 0.3% parasitemia in 96-well plates in the presence of drugs in a two-fold 10 or 12-point serial dilution in duplicate along with drug-free controls. After a 72-hour incubation, parasite survival was assessed by flow cytometry on an iQue flow cytometer (Sartorius) using SYBR Green and MitoTracker Deep Red FM (Life Technologies) as nuclear stain and vital dye, respectively. Parasite survival was determined as a percentage relative to drug-free control. IC50 values were interpolated from log concentration versus response curves in Prism 9 (GraphPad Prism Software Inc.).

[5] = tested on: P. falciparum 3D7 ABS parasites; assay: ABS parasite survival assay, 72 h, flow cytometry; format: cell-based; details: Plasmodium falciparum, 3D7, ABS parasites, N = 3; read-out: IC50 3D7
Description: as §2

[6] = 0.5–3.0 × IC50 vs untreated control

With C[C@H]1Cc2c([nH]c3cc(Cl)c(F)cc23)[C@@]2(N1)C(=O)Nc1ccc(Cl)cc12 [KAE609, cipargamin] the “%Hb” value ([1]; 0.5x) was 3.6542% and 7.0007% and 6.1505% and 3.0130%, the “%Heme” value ([1]; 0.5x) was 5.3042% and 5.9396% and 6.0562% and 6.0905% and the “%Hemozoin” value ([1]; 0.5x) was 91.0416% and 87.0597% and 87.7934% and 90.8965%. For the same molecule, the “Hb Fe (fg/troph)” value ([1]; 0.5x) was 2.0363 fg/troph and 3.5589 fg/troph and 3.2475 fg/troph and 1.8499 fg/troph, the “Heme Fe (fg/troph)” value ([1]; 0.5x) was 2.9557 fg/troph and 3.0195 fg/troph and 3.1977 fg/troph and 3.7394 fg/troph and the “Hemozoin Fe (fg/troph)” value ([1]; 0.5x) was 50.7323 fg/troph and 44.2576 fg/troph and 46.3552 fg/troph and 55.8088 fg/troph. The “Total Fe (fg/troph)” value ([1]; 0.5x) was 55.72 fg/troph and 50.84 fg/troph and 52.80 fg/troph and 61.40 fg/troph, the “effect on Hz levels” value [1, 6] was “did not affect Hz formation” and the “effect on undigested Hb” value [1, 6] was “subtle yet significant increment in Hb levels observed under 2 and 2.5 × IC50”. For the same molecule, the “%Hb” value ([1]; 1x) was 5.1693% and 5.1920% and 5.0902% and 5.1212%, the “%Heme” value ([1]; 1x) was 5.7735% and 5.8398% and 5.6460% and 5.8813% and the “%Hemozoin” value ([1]; 1x) was 89.0573% and 88.9682% and 89.2638% and 88.9975%. The “Hb Fe (fg/troph)” value ([1]; 1x) was 2.9437 fg/troph and 3.1428 fg/troph and 2.7576 fg/troph and 3.0371 fg/troph, the “Heme Fe (fg/troph)” value ([1]; 1x) was 3.2877 fg/troph and 3.5349 fg/troph and 3.0588 fg/troph and 3.4878 fg/troph and the “Hemozoin Fe (fg/troph)” value ([1]; 1x) was 50.7140 fg/troph and 53.8534 fg/troph and 48.3591 fg/troph and 52.7792 fg/troph. The “%Hb” value ([1]; 2x) was 6.5332% and 6.7594% and 6.3629% and 6.9166%, the “%Heme” value ([1]; 2x) was 5.4724% and 5.9940% and 4.2854% and 5.7076% and the “%Hemozoin” value ([1]; 2x) was 87.9944% and 87.2465% and 89.3517% and 87.3758%. The “Hb Fe (fg/troph)” value ([1]; 2x) was 4.0073 fg/troph and 4.4606 fg/troph and 3.7570 fg/troph and 4.7143 fg/troph, the “Heme Fe (fg/troph)” value ([1]; 2x) was 3.3567 fg/troph and 3.9555 fg/troph and 2.5303 fg/troph and 3.8902 fg/troph and the “Hemozoin Fe (fg/troph)” value ([1]; 2x) was 53.9742 fg/troph and 57.5747 fg/troph and 52.7581 fg/troph and 59.5545 fg/troph. For the same molecule, the “Total Fe (fg/troph)” value ([1]; 2x) was 61.34 fg/troph and 65.99 fg/troph and 59.05 fg/troph and 68.16 fg/troph, the “%Hb” value ([1]; 2.5x) was 5.1788% and 7.1992% and 6.5284% and 7.3663% and the “%Heme” value ([1]; 2.5x) was 6.6682% and 5.2565% and 5.5507% and 5.3264%. For the same molecule, the “%Hemozoin” value ([1]; 2.5x) was 88.1530% and 87.5443% and 87.9209% and 87.3073%, the “Hb Fe (fg/troph)” value ([1]; 2.5x) was 2.9541 fg/troph and 4.0082 fg/troph and 4.1259 fg/troph and 4.4913 fg/troph and the “Heme Fe (fg/troph)” value ([1]; 2.5x) was 3.8037 fg/troph and 2.9266 fg/troph and 3.5080 fg/troph and 3.2476 fg/troph. The “Hemozoin Fe (fg/troph)” value ([1]; 2.5x) was 50.2849 fg/troph and 48.7406 fg/troph and 55.5658 fg/troph and 53.2328 fg/troph, the “Total Fe (fg/troph)” value ([1]; 2.5x) was 57.04 fg/troph and 55.68 fg/troph and 63.20 fg/troph and 60.97 fg/troph and the “%Hb” value ([1]; 3x) was 3.4597% and 3.9960% and 5.9128% and 5.9841%. The “%Heme” value ([1]; 3x) was 6.5997% and 5.1160% and 5.1737% and 5.1489%, the “%Hemozoin” value ([1]; 3x) was 89.9406% and 90.8880% and 88.9135% and 88.8671% and the “Heme Fe (fg/troph)” value ([1]; 3x) was 3.6368 fg/troph and 3.2102 fg/troph and 3.3952 fg/troph and 3.4079 fg/troph. The “Hemozoin Fe (fg/troph)” value ([1]; 3x) was 49.5627 fg/troph and 57.0293 fg/troph and 58.3496 fg/troph and 58.8192 fg/troph.
In the case of COc1cccc(Nc2ccnc3ccccc23)c1 [LDT-617], the “SI (CC50 HepG2 / IC50 3D7)” value (HepG2 cells) is reported as 23.1, the CC50 at 72 h ([2]; HepG2 cells) is reported as 40800 ± 12200 nM and the “SI (CC50 COS-7 / IC50 3D7)” value (COS-7 cells) is reported as 28.9. The CC50 at 72 h ([3]; COS-7 cells) was 51200 ± 6600 nM, the IC50 [4] was 1900 ± 200 nM and the IC50 [5] was 1800 ± 100 nM.
In the case of COc1ccc(Nc2ccnc3ccccc23)cc1OC [LDT-618], the “SI (CC50 HepG2 / IC50 3D7)” value (HepG2 cells) is reported as 16.8, the CC50 at 72 h ([2]; HepG2 cells) is reported as 29800 ± 9700 nM and the “SI (CC50 COS-7 / IC50 3D7)” value (COS-7 cells) is reported as greater than 56.5. It also gave a CC50 at 72 h ([3]; COS-7 cells) greater than 100000 nM, an IC50 [4] of 1900 ± 200 nM and an IC50 [5] of 1800 ± 100 nM.
In the case of COc1cc(Nc2ccnc3ccc(Br)cc23)cc(OC)c1OC [LDT-619], the “SI (CC50 HepG2 / IC50 3D7)” value (HepG2 cells) is reported as 0.1, the CC50 at 72 h ([2]; read-out: CC50 HepG2) is reported as 300 ± 40 nM and the “SI (CC50 COS-7 / IC50 3D7)” value (COS-7 cells) is reported as 0.7. It also gave a CC50 at 72 h ([3]; read-out: CC50 COS-7) of 3300 ± 300 nM, an IC50 [4] greater than 5000 nM and an IC50 [5] greater than 5000 nM.
With CCOc1cc2nccc(Nc3cc(OC)c(OC)c(OC)c3)c2cc1OCC [LDT-620] the “SI (CC50 HepG2 / IC50 3D7)” value (HepG2 cells) was 3.8, the CC50 at 72 h ([2]; HepG2 cells) was 1600 ± 100 nM and the “SI (CC50 COS-7 / IC50 3D7)” value (COS-7 cells) was 6.3. The CC50 at 72 h ([3]; COS-7 cells) was 2600 ± 300 nM, the IC50 [4] was 500 ± 100 nM and the IC50 [5] was 400 ± 50 nM.
For COc1cc(Nc2ccnc3ccccc23)cc(OC)c1 [LDT-621], the “SI (CC50 HepG2 / IC50 3D7)” value (HepG2 cells) was 0.2, the CC50 at 72 h ([2]; HepG2 cells) was 500 ± 100 nM and the “SI (CC50 COS-7 / IC50 3D7)” value (COS-7 cells) was 2.8. The CC50 at 72 h ([3]; COS-7 cells) was 6500 ± 4200 nM, the IC50 [4] was 2000 ± 300 nM and the IC50 [5] was 2200 ± 100 nM.
